Measured values reported in patent US20170065564A1, “BIS-CYCLIC GUANIDINE COMPOUND COMPOSITIONS, METHODS OF USE AND TREATMENT THEREOF” (University of South Florida, priority 2014, published 2017).

Tests used:
Assay type in all cases: cell-based
Klebsiella pneumoniae = experiment: MIC micro broth dilution assay; design: key to stacked score activity, 100/MIC, K: stacked score = 100/MIC; conditions: K. pneumoniae
Description: (§1) For this study we used a representative panel of multi-drug resistant clinical ESKAPE pathogen isolates (Supplemental Table S6).^42 43 3a, 44 45 Gram-positive organisms were grown in tryptic soy broth media (TSB), whilst Gram-negative organisms were grown in lysogeny Broth (LB), as described by us previously. ^43 MIC and MBC determination assays.
(§2) Broth cultures of ESKAPE strains were grown overnight before being diluted 1 in 1,000 in fresh media. Sterile 96-well plates were loaded with culture and compounds (in DMF) were added at decreasing concentrations to equal a total volume of 200 μl per well. Care was taken to not add more than 2.0% DMF to any well. Plates were then incubated at 37° C., and MICs determined after 24 hours by visual inspection for a lack of turbidity in wells. All assays were performed in triplicate with identical results obtained. For both the scaffold ranking and positional scanning samples, relative broad-spectrum activity was determined via stacked scores: […]

ESKAPE pathogens = experiment: MIC micro broth dilution assay, statements and stacked scores over all ESKAPE pathogens; conditions: letters E,S,K,A,P,E = ESKAPE pathogens, — = none
Description: as §1
as §2, with “The minimum inhibitory concentration (MIC) for the combinatorial libraries, deconvolved 2157 library, and individual compounds were determined as follows. Broth” for “Broth”

Acinetobacter baumannii = experiment: MIC micro broth dilution assay; design: key to stacked score activity, 100/MIC, A: stacked score = 100/MIC; conditions: A. baumannii
Description: as §1, §2

Enterobacter cloacae = experiment: MIC micro broth dilution assay; design: key to stacked score activity, 100/MIC, E: stacked score = 100/MIC; conditions: E. cloacae
Description: as §1, §2

Enterococcus faecium = experiment: MIC micro broth dilution assay; design: key to stacked score activity, 100/MIC, E: stacked score = 100/MIC; conditions: E. faecium
Description: as §1, §2

Staphylococcus aureus = experiment: MIC micro broth dilution assay; design: key to stacked score activity, 100/MIC, S: stacked score = 100/MIC; conditions: S. aureus
Description: as §1, §2

| Structure (SMILES) | stacked score activity, 100/MIC, K (Klebsiella pneumoniae) | pathogens against which the compound showed activity at 5 ug/ml (ESKAPE pathogens) | pathogens against which the compound showed activity at 10 ug/ml (ESKAPE pathogens) | pathogens against which the compound showed activity at 25 ug/ml (ESKAPE pathogens) | stacked score activity, 100/MIC, A (Acinetobacter baumannii) | stacked score activity, 100/MIC, E (Enterobacter cloacae) | stacked score activity, 100/MIC, E (Enterococcus faecium) | stacked score activity, 100/MIC, S (Staphylococcus aureus) |
| --- | --- | --- | --- | --- | --- | --- | --- | --- |
| N=C1NC[C@H](CCCCN2C[C@@H](Cc3cccc4ccccc34)N(CCc3ccc(-c4ccccc4)cc3)C2=N)N1CCc1cccc(C(F)(F)F)c1 [Compound 6] | 20 | SKAE | ESKAE | ESKAPE | 20 | 20 | 10 | 20 |
| CCC(C)[C@H]1CN(CCCC[C@H]2CNC(=N)N2CC2CCC(C)CC2)C(=N)N1 (stereo partly drawn) [Compound 49] | 0 | – | – | – | 0 | 0 | 0 | 4 |
| CCC(C)[C@H]1CN(CCCC[C@H]2CNC(=N)N2CC2CCCCC2)C(=N)N1 (stereo partly drawn) [Compound 40] | 0 | – | – | – | 0 | 0 | 0 | 0 |
| N=C1NC[C@H](CCCCN2C[C@H](CC3CCCCC3)N(CCc3ccc(-c4ccccc4)cc3)C2=N)N1CCc1cccc(C(F)(F)F)c1 [Compound 9] | 20 | ESKAPE | ESKAPE | ESKAPE | 20 | 20 | 25 | 20 |
| N=C1NC[C@H](CCCCN2C[C@@H](Cc3cccc4ccccc34)N(CCc3ccc(-c4ccccc4)cc3)C2=N)N1CCC12CC3CC(CC(C3)C1)C2 [Compound 24] | 0 | – | – | – | 0 | 0 | 4 | 10 |
| CCC[C@@H]1CN(CCCC[C@H]2CNC(=N)N2CC2CCCCC2)C(=N)N1CC(C)CC (stereo partly drawn) [Compound 45] | 0 | – | – | – | 0 | 0 | 0 | 4 |
| CCC(C)CN1C(=N)N(CCCC[C@H]2CNC(=N)N2CC2CCCCC2)C[C@@H]1C(C)CC (stereo partly drawn) [Compound 42] | 0 | – | – | – | 0 | 0 | 0 | 4 |
| CCCCCCCN1C(=N)NC[C@@H]1CCCCN1C[C@@H](CCC)N(CC(C)CC)C1=N (stereo partly drawn) [Compound 36] | 0 | – | – | – | 0 | 0 | 0 | 4 |
| CCC(C)CN1C(=N)N(CCCC[C@H]2CNC(=N)N2CC2CCC(C)CC2)C[C@@H]1C(C)CC (stereo partly drawn) [Compound 51] | 0 | – | – | – | 0 | 0 | 0 | 4 |
| Cc1cccc(CCN2CCN(CCCC[C@H]3CNC(=N)N3CC3CCC(C)CC3)C2=N)c1 (stereo partly drawn) [Compound 47] | 0 | – | – | – | 0 | 0 | 0 | 4 |
| CCC[C@@H]1CN(CCCC[C@H]2CNC(=N)N2CC2CCC(C)CC2)C(=N)N1CCc1cccc(C)c1 (stereo partly drawn) [Compound 53] | 0 | – | – | – | 0 | 0 | 0 | 4 |
| CCC(C)[C@H]1CN(CCCC[C@H]2CNC(=N)N2CC2CCCCC2)C(=N)N1CCc1cccc(C)c1 (stereo partly drawn) [Compound 41] | 0 | – | – | – | 0 | 0 | 0 | 4 |
| CC1CCC(CN2C(=N)NC[C@@H]2CCCCN2CCNC2=N)CC1 (stereo partly drawn) [Compound 46] | 0 | – | – | – | 0 | 0 | 0 | 0 |
| CCC(C)CN1CCN(CCCC[C@H]2CNC(=N)N2CC2CCC(C)CC2)C1=N (stereo partly drawn) [Compound 48] | 0 | – | – | – | 0 | 0 | 0 | 0 |
| CCCCCCCN1C(=N)NC[C@@H]1CCCCN1CCNC1=N [Compound 28] | 0 | – | – | – | 0 | 0 | 0 | 0 |
| CCCCCCCN1C(=N)NC[C@@H]1CCCCN1C[C@@H](CCC)NC1=N [Compound 34] | 0 | – | – | – | 0 | 0 | 0 | 4 |
| CCC[C@@H]1CN(CCCC[C@H]2CNC(=N)N2CC2CCCCC2)C(=N)N1CCc1cccc(C)c1 [Compound 44] | 0 | – | – | – | 0 | 0 | 0 | 4 |
| CCCCCCCN1C(=N)NC[C@@H]1CCCCN1C[C@H](C(C)CC)NC1=N (stereo partly drawn) [Compound 31] | 0 | – | – | – | 0 | 0 | 0 | 4 |
| CCC[C@@H]1CN(CCCC[C@H]2CNC(=N)N2CC2CCC(C)CC2)C(=N)N1 (stereo partly drawn) [Compound 52] | 0 | – | – | – | 0 | 0 | 0 | 4 |
| CCCCCCCN1C(=N)NC[C@@H]1CCCCN1C[C@H](C(C)CC)N(CC(C)CC)C1=N (stereo partly drawn) [Compound 33] | 0 | – | – | – | 0 | 0 | 0 | 4 |
| N=C1NCCN1CCCC[C@H]1CNC(=N)N1CC1CCCCC1 [Compound 37] | 0 | – | – | – | 0 | 0 | 0 | 0 |
| CCC[C@@H]1CN(CCCC[C@H]2CNC(=N)N2CC2CCC(C)CC2)C(=N)N1CC(C)CC (stereo partly drawn) [Compound 54] | 0 | – | – | – | 0 | 0 | 0 | 4 |
| CCC[C@@H]1CN(CCCC[C@H]2CNC(=N)N2CC2CCCCC2)C(=N)N1 [Compound 43] | 0 | – | – | – | 0 | 0 | 0 | 0 |
| Cc1cccc(CCN2CCN(CCCC[C@H]3CNC(=N)N3CC3CCCCC3)C2=N)c1 [Compound 38] | 0 | – | – | – | 0 | 0 | 0 | 4 |
| CCCCCCCN1C(=N)NC[C@@H]1CCCCN1CCN(CCc2cccc(C)c2)C1=N [Compound 29] | 0 | – | – | – | 0 | 0 | 0 | 4 |
| CCCCCCCN1C(=N)NC[C@@H]1CCCCN1CCN(CC(C)CC)C1=N (stereo partly drawn) [Compound 30] | 0 | – | – | – | 0 | 0 | 0 | 0 |
| CCC(C)CN1CCN(CCCC[C@H]2CNC(=N)N2CC2CCCCC2)C1=N (stereo partly drawn) [Compound 39] | 0 | – | – | – | 0 | 0 | 0 | 0 |
